Experimental data published in publication PMC12486159 (American journal of physiology. Renal physiology, 2025).

Molecular target: human FATP2 (Homo sapiens, UniProt O14975)
Experiment: BODIPY-FA uptake in FATP2-overexpressing HPCT cells, fluorescence plate reader
Format: cell-based

human FATP2, sequence (O14975 whole entry): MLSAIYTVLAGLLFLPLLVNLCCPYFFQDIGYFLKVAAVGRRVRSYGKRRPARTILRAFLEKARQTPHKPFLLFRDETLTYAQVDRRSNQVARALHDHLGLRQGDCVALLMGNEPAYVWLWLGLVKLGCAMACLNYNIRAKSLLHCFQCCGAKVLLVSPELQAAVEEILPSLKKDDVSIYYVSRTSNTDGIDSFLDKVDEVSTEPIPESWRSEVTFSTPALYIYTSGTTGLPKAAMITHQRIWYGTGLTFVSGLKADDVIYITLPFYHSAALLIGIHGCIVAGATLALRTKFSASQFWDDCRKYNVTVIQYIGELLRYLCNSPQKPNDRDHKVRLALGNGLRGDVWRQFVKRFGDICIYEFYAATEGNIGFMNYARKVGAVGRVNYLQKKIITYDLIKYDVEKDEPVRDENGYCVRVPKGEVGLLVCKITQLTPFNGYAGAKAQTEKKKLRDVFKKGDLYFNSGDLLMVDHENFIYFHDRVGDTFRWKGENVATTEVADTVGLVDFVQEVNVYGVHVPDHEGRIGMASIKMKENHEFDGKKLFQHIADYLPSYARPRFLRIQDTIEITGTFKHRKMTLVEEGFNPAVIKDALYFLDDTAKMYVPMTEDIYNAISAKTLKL

IC50: 5 µM
SMILES: O=C1Nc2ccc(Br)cc2C12NN=C(c1ccccc1)S2 (stereo not shown) [Lipofermata]
